Each block holds one compound with its values, some of them ahead of it. Activity calls are given as the source filed them.
Key:
[1] = molecular target: DNA repair and recombination protein RAD54-like (Homo sapiens, UniProt Q92698); assay: RAD54 Holliday junction migration blockers – biochemical, fluorescence, cherry-picked samples, dose series, confirmation (AID 651657); assay type: functional
[2] = molecular target: T1, Heat shock factor protein 1 (Mus musculus, UniProt P38532); assay: enhancement of HSF1-driven luciferase signal – cell-based, NIH3T3, luminescence, dose retest, confirmation (AID 435004); assay type: functional;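 also: stress induced by proteasome inhibitor MG132 added 30 min after compound; luciferase reporter driven by HSF1 response element in NIH3T3 cells; actives raise luminescence as potentiators of the MG132 stress response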
T1 sequence (P38532 whole entry): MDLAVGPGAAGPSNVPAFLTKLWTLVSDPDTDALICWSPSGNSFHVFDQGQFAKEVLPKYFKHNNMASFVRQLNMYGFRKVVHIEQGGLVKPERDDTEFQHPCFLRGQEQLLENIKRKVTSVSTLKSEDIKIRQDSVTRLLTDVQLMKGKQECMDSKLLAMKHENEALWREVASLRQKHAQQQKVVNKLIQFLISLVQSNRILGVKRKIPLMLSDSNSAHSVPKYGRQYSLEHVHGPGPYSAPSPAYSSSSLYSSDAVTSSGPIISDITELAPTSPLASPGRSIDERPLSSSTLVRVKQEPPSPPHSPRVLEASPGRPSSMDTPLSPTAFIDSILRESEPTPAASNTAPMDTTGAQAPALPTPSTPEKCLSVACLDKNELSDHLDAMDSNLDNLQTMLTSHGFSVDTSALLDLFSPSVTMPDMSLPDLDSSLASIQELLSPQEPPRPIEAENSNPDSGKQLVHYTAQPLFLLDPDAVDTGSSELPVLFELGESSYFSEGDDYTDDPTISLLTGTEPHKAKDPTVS

Hexokinase HKDC1 = molecular target: T2, Hexokinase HKDC1 (Homo sapiens, UniProt Q2TB90); assay: activation of HKDC1 glucose phosphorylation – biochemical, W721R variant, dose response (AID 504730); assay type: functional
T2 sequence (Q2TB90 whole entry): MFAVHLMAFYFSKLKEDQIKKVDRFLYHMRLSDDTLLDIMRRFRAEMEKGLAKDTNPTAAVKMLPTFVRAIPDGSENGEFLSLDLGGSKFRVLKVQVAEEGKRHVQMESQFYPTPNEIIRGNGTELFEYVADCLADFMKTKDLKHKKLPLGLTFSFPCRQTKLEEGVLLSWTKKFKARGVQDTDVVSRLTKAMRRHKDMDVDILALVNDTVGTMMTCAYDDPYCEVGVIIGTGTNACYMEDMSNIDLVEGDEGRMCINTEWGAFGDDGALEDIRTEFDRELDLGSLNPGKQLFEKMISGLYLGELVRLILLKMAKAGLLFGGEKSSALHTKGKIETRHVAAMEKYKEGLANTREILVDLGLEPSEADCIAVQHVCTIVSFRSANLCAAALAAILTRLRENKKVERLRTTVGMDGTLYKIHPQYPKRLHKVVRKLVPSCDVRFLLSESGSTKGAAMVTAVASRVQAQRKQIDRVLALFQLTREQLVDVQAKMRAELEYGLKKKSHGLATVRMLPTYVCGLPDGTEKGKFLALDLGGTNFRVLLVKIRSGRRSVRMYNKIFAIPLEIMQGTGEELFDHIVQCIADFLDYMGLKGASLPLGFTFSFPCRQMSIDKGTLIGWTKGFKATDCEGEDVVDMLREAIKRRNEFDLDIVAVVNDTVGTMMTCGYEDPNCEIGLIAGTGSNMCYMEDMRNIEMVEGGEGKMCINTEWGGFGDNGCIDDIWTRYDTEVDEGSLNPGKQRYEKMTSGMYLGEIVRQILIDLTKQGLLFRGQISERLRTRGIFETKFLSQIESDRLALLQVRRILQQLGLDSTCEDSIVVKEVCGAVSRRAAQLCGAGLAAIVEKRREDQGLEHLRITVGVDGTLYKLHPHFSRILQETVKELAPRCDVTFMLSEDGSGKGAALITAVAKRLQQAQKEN

[3] = molecular target: Tyrosine-protein phosphatase non-receptor type 11 (Homo sapiens, UniProt Q06124); assay: PTPN11 enzyme inhibitors – biochemical, selectivity assay for STEP inhibitor project, dose response (AID 602367); assay type: functional; settings: read-out: IC50_Mean
[4] = molecular target: Dual specificity protein phosphatase 3 (Homo sapiens, UniProt P51452); assay: VHR phosphatase inhibition, dose response, selectivity assay for STEP inhibitor project, biochemical (AID 602374); assay type: functional; settings: read-out: IC50_Mean
[5] = molecular target: Tyrosine-protein phosphatase non-receptor type 5 (Homo sapiens, UniProt P54829); assay: PTPN5 enzyme inhibition – biochemical, fluorescence intensity, uHTS hits, confirmation (AID 602372); assay type: functional; settings: read-out: IC50_Mean
Hexokinase-1 = molecular target: T3, Hexokinase-1 (Homo sapiens, UniProt P19367); assay: HK1 enzyme activation by HKDC1 hits – biochemical, selectivity assay for HKDC1 activator project, dose response (AID 504762); assay type: functional
T3 sequence (P19367 whole entry): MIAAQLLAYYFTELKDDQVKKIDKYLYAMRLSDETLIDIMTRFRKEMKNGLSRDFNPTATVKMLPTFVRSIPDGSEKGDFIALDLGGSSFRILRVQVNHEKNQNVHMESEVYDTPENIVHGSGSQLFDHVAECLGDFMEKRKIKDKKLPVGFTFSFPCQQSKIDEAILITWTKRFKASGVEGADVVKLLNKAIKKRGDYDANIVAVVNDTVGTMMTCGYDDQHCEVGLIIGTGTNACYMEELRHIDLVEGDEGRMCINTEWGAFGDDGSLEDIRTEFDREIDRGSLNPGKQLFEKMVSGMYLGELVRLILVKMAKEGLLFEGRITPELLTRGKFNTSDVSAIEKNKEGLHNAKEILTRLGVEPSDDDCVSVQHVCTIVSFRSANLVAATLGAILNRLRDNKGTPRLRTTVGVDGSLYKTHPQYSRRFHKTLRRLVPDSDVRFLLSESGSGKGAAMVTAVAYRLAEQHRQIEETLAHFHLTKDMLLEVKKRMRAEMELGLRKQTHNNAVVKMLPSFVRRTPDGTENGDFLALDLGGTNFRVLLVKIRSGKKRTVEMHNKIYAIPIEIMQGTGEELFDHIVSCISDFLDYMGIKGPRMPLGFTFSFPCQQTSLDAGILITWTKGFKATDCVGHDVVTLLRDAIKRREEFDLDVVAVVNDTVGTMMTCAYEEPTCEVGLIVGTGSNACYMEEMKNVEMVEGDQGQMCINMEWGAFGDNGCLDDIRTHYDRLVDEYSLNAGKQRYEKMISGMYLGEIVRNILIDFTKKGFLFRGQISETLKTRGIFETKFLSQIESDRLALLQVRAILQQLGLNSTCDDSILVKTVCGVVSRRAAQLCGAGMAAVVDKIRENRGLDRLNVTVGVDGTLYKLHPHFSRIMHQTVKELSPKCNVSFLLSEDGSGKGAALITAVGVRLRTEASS

[6] = nonselective StAR promoter luciferase inhibitors – cell-based, luminescence, luciferase reporter, counter-screen for LRH-1 inverse agonist project, dose response (AID 651969); assay type: functional
[7] = molecular target: Nuclear receptor subfamily 5 group A member 2 (Homo sapiens, UniProt O00482); assay type: functional, cell-based;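 also: HEK293T cells transfected with LRH-1 and a StAR promoter luciferase reporter; potency for inhibitors that lower LRH-1 driven reporter light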
Steroidogenic factor 1 = Steroidogenic factor 1 (Homo sapiens, UniProt Q13285); assay: Counterscreen for inverse agonists of the liver receptor homolog-1 (LRH-1; NR5A2): Luminescence-based cell-based high throughput dose response assay to identify inverse agonists of the Steroidogenic Factor 1 Nuclear Receptor (SF1; NR5A1).; assay type: functional
[8] = activation of miR-122 Renilla sensor silencing – cell-based, Huh7 psiCHECK-miR122, Renilla luciferase, cherry-picked, dose response (AID 651956); assay type: functional;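 also: huh7 hepatoma cells stably carrying a psiCHECK-2 miR-122 sensor plasmid; renilla luciferase signal reporting endogenous miR-122 activity after 48 h compound exposure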
[9] = viability loss in HEK293T cells – cell-based, cherry-picks, cytotoxicity control for HIV Vif inhibitor project, dose response (AID 652208); assay type: functional
[10] = inhibitors of EBV LMP1 NF-kappaB signaling – cell-based, luciferase reporter, luminescence, dry powder, set 2, dose response (AID 624376); assay type: functional
Paired box protein Pax-8 = Paired box protein Pax-8 (Homo sapiens, UniProt Q06710); assay: PAX8 transcriptional activity inhibition in RMG-I – RMG-I cells, luciferase, cherry-pick, dose response (AID 687027); assay type: functional, cell-based;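 also: luciferase reporter driven by Pax8 target thyroperoxidase promoter measured by SteadyGlo luminescence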
[11] = general cell-killing toxicity readout – plate reader, dry powder samples, cytotoxicity control for PAX8 inhibitor project, dose response (AID 743021); assay type: functional, cell-based
[12] = OVCAR-3 cell viability loss – plate reader, dry powder samples, PAX8 inhibitor project, dose response (AID 743044); assay type: functional, cell-based
[13] = A2780 cell killing – plate reader, dry powder samples, cytotoxicity control, dose response (AID 743046); assay type: functional, cell-based
Albumin = Albumin (Bos taurus, UniProt P02769); assay: Counterscreen for inhibitors of T-cell receptor (TCR)-CD3 interaction: Fluorescence-based biochemical high throughput dose response assay to identify inhibitors of T-cell receptor (TCR)-CD3 interaction using a TAMRA-labeled BSA probe.; assay type: functional
[14] = molecular target: T4, DNA repair protein RAD52 homolog (Homo sapiens, UniProt P43351); assay type: functional, biochemical
T4 sequence (P43351 whole entry): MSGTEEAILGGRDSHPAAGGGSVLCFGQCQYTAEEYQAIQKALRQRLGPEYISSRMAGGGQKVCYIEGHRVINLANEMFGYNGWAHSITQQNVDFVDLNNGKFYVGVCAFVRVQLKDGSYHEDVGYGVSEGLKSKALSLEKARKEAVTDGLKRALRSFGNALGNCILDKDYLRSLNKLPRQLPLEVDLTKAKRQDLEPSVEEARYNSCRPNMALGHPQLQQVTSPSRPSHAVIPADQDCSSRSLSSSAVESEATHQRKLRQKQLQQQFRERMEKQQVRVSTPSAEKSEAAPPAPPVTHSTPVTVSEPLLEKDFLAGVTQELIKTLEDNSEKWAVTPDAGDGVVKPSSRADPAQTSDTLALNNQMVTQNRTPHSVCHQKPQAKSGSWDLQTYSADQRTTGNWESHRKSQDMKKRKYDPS

DNA repair and recombination protein RAD54-like, sequence (Q92698 whole entry): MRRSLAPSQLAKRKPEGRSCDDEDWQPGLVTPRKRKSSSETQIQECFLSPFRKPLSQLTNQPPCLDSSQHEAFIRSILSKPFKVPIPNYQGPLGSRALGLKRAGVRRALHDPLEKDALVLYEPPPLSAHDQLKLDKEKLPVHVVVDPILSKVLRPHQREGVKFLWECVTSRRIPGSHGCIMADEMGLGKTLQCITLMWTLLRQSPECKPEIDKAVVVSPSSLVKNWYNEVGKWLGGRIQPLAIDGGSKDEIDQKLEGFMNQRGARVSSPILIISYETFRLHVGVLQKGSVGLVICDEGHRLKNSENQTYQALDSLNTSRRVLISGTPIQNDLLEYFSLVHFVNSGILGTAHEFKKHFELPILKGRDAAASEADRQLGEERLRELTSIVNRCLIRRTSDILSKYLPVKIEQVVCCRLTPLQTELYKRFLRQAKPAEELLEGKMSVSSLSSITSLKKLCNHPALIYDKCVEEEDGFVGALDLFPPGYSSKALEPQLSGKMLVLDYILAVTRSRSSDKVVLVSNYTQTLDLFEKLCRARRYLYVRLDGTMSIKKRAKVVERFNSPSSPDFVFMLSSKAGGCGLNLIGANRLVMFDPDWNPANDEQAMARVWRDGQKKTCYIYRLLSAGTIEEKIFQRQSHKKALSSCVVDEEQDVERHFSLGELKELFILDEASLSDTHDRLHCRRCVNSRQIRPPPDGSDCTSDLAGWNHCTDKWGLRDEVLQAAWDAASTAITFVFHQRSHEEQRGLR
Paired box protein Pax-8, sequence (Q06710 whole entry): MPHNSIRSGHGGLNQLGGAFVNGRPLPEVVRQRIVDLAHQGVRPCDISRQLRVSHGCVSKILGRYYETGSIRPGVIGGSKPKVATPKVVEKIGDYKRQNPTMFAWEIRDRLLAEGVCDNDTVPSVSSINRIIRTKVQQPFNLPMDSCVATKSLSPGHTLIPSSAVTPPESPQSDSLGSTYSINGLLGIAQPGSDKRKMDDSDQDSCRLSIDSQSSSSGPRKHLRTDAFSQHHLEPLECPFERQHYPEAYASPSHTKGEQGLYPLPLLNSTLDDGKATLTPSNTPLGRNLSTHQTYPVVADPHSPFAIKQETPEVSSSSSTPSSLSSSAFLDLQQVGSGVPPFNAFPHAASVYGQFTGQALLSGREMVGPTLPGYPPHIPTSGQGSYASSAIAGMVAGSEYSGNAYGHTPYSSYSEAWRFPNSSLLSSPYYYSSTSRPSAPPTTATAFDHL
Dual specificity protein phosphatase 3, sequence (P51452 whole entry): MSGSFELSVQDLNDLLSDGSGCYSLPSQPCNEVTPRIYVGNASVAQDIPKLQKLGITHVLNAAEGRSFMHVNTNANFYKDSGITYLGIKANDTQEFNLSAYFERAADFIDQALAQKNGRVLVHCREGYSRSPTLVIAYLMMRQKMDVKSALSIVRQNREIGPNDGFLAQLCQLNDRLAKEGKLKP
Steroidogenic factor 1, sequence (Q13285 whole entry): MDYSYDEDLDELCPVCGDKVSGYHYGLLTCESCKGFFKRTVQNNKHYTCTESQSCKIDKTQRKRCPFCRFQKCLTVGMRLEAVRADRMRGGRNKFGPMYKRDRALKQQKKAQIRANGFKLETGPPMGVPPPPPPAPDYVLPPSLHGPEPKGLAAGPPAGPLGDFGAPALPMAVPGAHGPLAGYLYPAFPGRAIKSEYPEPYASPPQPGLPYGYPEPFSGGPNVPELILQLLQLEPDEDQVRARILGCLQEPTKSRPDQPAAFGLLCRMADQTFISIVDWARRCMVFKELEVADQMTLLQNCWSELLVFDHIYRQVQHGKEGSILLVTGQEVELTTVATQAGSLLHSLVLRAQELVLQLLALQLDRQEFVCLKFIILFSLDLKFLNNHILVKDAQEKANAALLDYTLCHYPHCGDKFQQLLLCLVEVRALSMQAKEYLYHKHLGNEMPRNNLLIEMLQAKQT
Albumin, sequence (P02769 whole entry): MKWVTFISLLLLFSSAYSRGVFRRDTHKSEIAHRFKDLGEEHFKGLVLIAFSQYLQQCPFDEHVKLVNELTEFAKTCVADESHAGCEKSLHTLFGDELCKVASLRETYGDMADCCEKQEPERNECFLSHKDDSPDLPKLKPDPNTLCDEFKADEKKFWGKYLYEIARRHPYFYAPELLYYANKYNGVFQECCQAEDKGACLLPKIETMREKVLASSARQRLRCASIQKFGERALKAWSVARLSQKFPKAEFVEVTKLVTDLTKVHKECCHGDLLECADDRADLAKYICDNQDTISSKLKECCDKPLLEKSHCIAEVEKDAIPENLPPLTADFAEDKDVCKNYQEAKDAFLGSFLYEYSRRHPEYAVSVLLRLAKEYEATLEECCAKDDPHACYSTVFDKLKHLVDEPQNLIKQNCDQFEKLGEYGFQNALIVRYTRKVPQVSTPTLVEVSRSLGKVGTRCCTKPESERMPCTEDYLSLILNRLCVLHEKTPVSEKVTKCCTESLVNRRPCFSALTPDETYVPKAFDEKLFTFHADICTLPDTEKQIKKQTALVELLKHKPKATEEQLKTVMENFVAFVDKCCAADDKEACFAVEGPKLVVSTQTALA
Nuclear receptor subfamily 5 group A member 2, sequence (O00482 whole entry): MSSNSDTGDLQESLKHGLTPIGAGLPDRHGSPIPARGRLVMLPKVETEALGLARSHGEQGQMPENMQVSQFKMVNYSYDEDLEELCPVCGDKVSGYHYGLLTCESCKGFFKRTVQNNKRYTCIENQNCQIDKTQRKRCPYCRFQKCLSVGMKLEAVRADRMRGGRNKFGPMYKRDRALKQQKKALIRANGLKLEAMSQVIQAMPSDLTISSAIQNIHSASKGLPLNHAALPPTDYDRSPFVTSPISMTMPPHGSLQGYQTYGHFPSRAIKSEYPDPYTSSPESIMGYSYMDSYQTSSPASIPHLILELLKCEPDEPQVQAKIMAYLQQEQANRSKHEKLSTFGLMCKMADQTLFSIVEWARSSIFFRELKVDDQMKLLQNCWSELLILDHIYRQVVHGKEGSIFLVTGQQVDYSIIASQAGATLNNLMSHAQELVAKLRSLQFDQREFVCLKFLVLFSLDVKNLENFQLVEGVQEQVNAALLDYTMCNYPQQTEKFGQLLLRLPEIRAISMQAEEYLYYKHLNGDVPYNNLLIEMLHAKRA
Tyrosine-protein phosphatase non-receptor type 5, sequence (P54829 whole entry): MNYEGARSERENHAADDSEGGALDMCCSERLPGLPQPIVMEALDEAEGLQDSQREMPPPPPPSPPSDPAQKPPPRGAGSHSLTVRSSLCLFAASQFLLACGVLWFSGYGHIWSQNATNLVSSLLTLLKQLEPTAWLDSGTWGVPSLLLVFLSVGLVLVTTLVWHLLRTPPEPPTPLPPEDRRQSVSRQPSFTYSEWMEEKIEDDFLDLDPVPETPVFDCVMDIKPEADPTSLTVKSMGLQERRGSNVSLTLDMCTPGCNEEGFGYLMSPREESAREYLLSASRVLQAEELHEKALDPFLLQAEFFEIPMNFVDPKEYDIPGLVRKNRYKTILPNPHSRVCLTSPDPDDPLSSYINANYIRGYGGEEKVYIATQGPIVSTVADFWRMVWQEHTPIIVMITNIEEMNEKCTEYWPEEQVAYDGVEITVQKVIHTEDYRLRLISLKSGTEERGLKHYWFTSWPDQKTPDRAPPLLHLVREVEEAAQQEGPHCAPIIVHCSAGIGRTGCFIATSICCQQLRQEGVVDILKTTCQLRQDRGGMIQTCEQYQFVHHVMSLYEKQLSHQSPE

- AC50 [1]: 32.1 µM (active)
- EC50 [2]: 55.8 µM (active)
Structure (SMILES): CCOC(=O)c1c(NC(C)=O)sc2c(O)c(CN3CCN(CC)CC3)ccc12

- EC50 (Hexokinase HKDC1): > 80 µM (inactive)
- IC50 [3]: 6.06 µM (active)
- IC50 [4]: 7.77 µM (active)
- IC50 [5]: > 80 µM (inactive)
- EC50 (Hexokinase-1): > 80 µM (inactive)
Structure (SMILES): CC(=NNC(=S)N1CC2CCC(CC2)C1)c1cccc(C)n1

Structure (SMILES): COc1ccc(Nc2nc(NCCN3CCOCC3)nc(Nc3ccc(OC)cc3)n2)cc1
- IC50 [6]: 12 µM (inactive)
- IC50 [7]: 5.3 µM (active)
- IC50 (Steroidogenic factor 1): 4.32 µM (active)

Structure (SMILES): C[C@@H]1CN([C@@H](C)CO)S(=O)(=O)c2ccc(-c3ccccc3)cc2O[C@@H]1CN(C)C(=O)c1ccc2c(c1)OCO2
- AC50 [8]: 16.3 µM (active)

Structure (SMILES): COc1ccc(-c2coc3c(C(=O)Nc4cccc(C(C)=O)c4)cccc23)c(C)c1
- AC50 [9]: > 52 µM (inactive)

Structure (SMILES): COc1cccc(S(=O)(=O)N(C)C[C@H]2Oc3cc(C4=CCCCC4)ccc3S(=O)(=O)N([C@@H](C)CO)C[C@@H]2C)c1
- AbsAC35 [10]: 64.1 µM

Structure (SMILES): C[C@H](CO)N1C[C@H](C)[C@H](CN(C)C(=O)[C@H](Cc2ccccc2)N(C)C)OCc2ccccc2-c2c(n(C)c3ccccc23)C1=O
- AC50 (Paired box protein Pax-8): 16.4 µM (active)
- AC50 [11]: 36.2 µM (active)
- AC50 [12]: 45.4 µM (active)
- AC50 [13]: 12.6 µM (active)

- IC50 (Albumin): > 94.1 µM (inactive)
Structure (SMILES): CNC(=S)N/N=C/c1cc(Br)cc(Br)c1O

- AC50 [1]: 11.7 µM (active)
- AC50 [14]: 11.2 µM (active)
Structure (SMILES): CCOC(=O)c1cnc2ccc(OCC)cc2c1NCCCN1CCOCC1

Reference: ChEMBL document CHEMBL1201862, “PubChem BioAssay data set” (2004)
